“Also recorded” adds a separate entry of the source.
Experiments:
Format in all cases: in vivo, mouse (C57BL/6J male, 60% HFD DIO)
[1] = Example 1: body weight and body weight change rate, combined administration of HTD1801 and empagliflozin in DIO obesity model; settings: semaglutide 10 nmol/kg s.c. Q3D
Excerpt: (§1) After 5-week-old C57BL/6J male mice were acclimatized for 1 week, the weight of each mouse was weighed, and the mice were randomly divided into a control group and a model group by taking the weight as a main index, where 12 mice in the control group were fed with common feed (CD), and the mice in the remaining model group were fed with 60% high-fat feed (60% HFD) for 10-12 weeks to construct a DIO obesity model, with the average body weight being not less than 40 g. The mice fed with 60% HFD were grabbed and acclimatized with a solvent for 3 days, where the acclimatization with a solvent was performed by oral gavage of 0.5% CMC-Na, twice daily.
(§2) The food intake, the body weight, the body fat ratio, and the insulin level of the mice were respectively measured, followed by fasting blood glucose level, and the mice were randomly grouped according to Table 3 by taking the body weight as an index, and the remaining ungrouped mice were euthanized. After grouping, each group of mice was administered according to Table 3, the day of administration was defined as DO, and the administration volume of each drug was determined based on the results obtained by the calculation of 5 μL/g× mouse body weight (g).
(§3) For the combined administration group, the total administration volume was the sum of the administration volumes of two single drugs, and the administration sequence and the administration time were kept consistent at each administration. The mice were continuously fed with high-fat feed during the administration period until the administration was finished. During administration, 2 food intakes were measured per week (difference in feed weights at an interval of 24 h was measured); each group of mice was weighed once daily; postprandial blood glucose levels were measured weekly; blood was collected from the tail tip on day 6 and day 20, respectively, so as to measure fasting blood glucose levels once (blood was collected after fasting from 8:00 am to […]); on day 25 of administration, the body fat ratio and the lean mass of each group of mice were measured by MRI (the measurement period was kept consistent with that before grouping); after 4 weeks of administration intervention (day 28), each group of mice was fasted for 6 h and subjected to OGTT (0 min, 15 min, 30 min, 60 min, 90 min, 120 min) to detect their blood glucose levels, and meanwhile subjected to blood sampling via submaxillary vein (0 min, 15 min, 30 min, about 30 μL of blood sampled each time), and then the blood plasma was separated for detecting the insulin level by ELISA, where the separated blood plasma was more than 10 μL; the next day (D29) at the end of administration was set as the test endpoint, and the mice were fasted for 6 h in the morning and subjected to fasting blood glucose level measurement; subsequently, the mice were euthanized with CO2, blood was collected from the heart of each mouse for analysis, and each group of mice was dissected; the liver and subcutaneous, epididymal and mesenteric fat was collected, photographed and weighed, respectively.

[2] = Example 1: body fat mass by MRI after 25 days
Excerpt: as §1, §2, §3
After 25 days of administration, the body weight, the body fat mass and the body fat ratio of each animal in groups G1 to G6 were measured and averaged for each group, and the results are shown in Table 5 below, FIG. 4 and FIG. 5.

[3] = Example 1: lean mass by MRI after 25 days
Excerpt: as §1, §2, §3
After 25 days of administration, the body weight, the Lean weight and the lean ratio of each animal in groups G1 to G5 were measured and averaged for each group, and the results are shown in Table 7 below, FIG. 9 and FIG. 10.

[4] = Example 1: fasting blood glucose level; settings: semaglutide 10 nmol/kg s.c. Q3D
Excerpt: as §1, §2
For the combined administration group, the total administration volume was the sum of the administration volumes of two single drugs, and the administration sequence and the administration time were kept consistent at each administration. The mice were continuously fed with high-fat feed during the administration period until the administration was finished. […]
After 20 days of administration, fasting blood glucose level results were measured for each group of animals and are shown in Table 8 below and FIG. 11.

[5] = Example 1: oral glucose tolerance test (OGTT), blood glucose; settings: for OGTT blood glucose level: HTD1801 200 mpk, empagliflozin 10 mpk (reduced after week 2), semaglutide 10 nmol/kg s.c. Q3D
Excerpt: as §1, §2, §3

[6] = Example 1: food intake within 24 h; settings: during administration period, vs model control group
Excerpt: as §1
The food intake, the body weight, the body fat ratio, and the insulin level of the mice were respectively measured, followed by fasting blood glucose level, and the mice were randomly grouped according to Table 3 by taking the body weight as an index, and the remaining ungrouped mice were euthanized. After grouping, each group of mice was administered according to Table 3, the day of administration was defined as DO, and the administration volume of each drug was determined based on the results obtained by the calculation of 5 μL/g× mouse body weight (g). […]

[7] = day 0 (baseline), HTD1801 300 mpk, empagliflozin 15 mpk gavage QD
[8] = day 1, HTD1801 300 mpk, empagliflozin 15 mpk gavage QD
[9] = day 2, HTD1801 300 mpk, empagliflozin 15 mpk gavage QD
[10] = day 3, HTD1801 300 mpk, empagliflozin 15 mpk gavage QD
[11] = day 4, HTD1801 300 mpk, empagliflozin 15 mpk gavage QD
[12] = day 5, HTD1801 300 mpk, empagliflozin 15 mpk gavage QD
[13] = day 6, HTD1801 300 mpk, empagliflozin 15 mpk gavage QD
[14] = day 7, HTD1801 300 mpk, empagliflozin 15 mpk gavage QD
[15] = day 8, HTD1801 300 mpk, empagliflozin 15 mpk gavage QD
[16] = day 9, HTD1801 300 mpk, empagliflozin 15 mpk gavage QD
[17] = day 10, HTD1801 300 mpk, empagliflozin 15 mpk gavage QD
[18] = day 11, HTD1801 300 mpk, empagliflozin 15 mpk gavage QD
[19] = day 12, HTD1801 300 mpk, empagliflozin 15 mpk gavage QD
[20] = day 13, HTD1801 300 mpk, empagliflozin 15 mpk gavage QD
[21] = day 14, HTD1801 300 mpk, empagliflozin 15 mpk gavage QD
[22] = day 15, HTD1801 200 mpk, empagliflozin 10 mpk (reduced after week 2) gavage QD
[23] = day 16, HTD1801 200 mpk, empagliflozin 10 mpk (reduced after week 2) gavage QD
[24] = day 17, HTD1801 200 mpk, empagliflozin 10 mpk (reduced after week 2) gavage QD
[25] = day 18, HTD1801 200 mpk, empagliflozin 10 mpk (reduced after week 2) gavage QD
[26] = day 19, HTD1801 200 mpk, empagliflozin 10 mpk (reduced after week 2) gavage QD
[27] = day 20, HTD1801 200 mpk, empagliflozin 10 mpk (reduced after week 2) gavage QD
[28] = day 21, HTD1801 200 mpk, empagliflozin 10 mpk (reduced after week 2) gavage QD
[29] = day 22, HTD1801 200 mpk, empagliflozin 10 mpk (reduced after week 2) gavage QD
[30] = day 23, HTD1801 200 mpk, empagliflozin 10 mpk (reduced after week 2) gavage QD
[31] = day 24, HTD1801 200 mpk, empagliflozin 10 mpk (reduced after week 2) gavage QD
[32] = day 25, HTD1801 200 mpk, empagliflozin 10 mpk (reduced after week 2) gavage QD
[33] = day 26, HTD1801 200 mpk, empagliflozin 10 mpk (reduced after week 2) gavage QD
[34] = day 27, HTD1801 200 mpk, empagliflozin 10 mpk (reduced after week 2) gavage QD
[35] = day 28, HTD1801 200 mpk, empagliflozin 10 mpk (reduced after week 2) gavage QD
[36] = mean, after 25 days of administration, HTD1801 200 mpk, empagliflozin 10 mpk in last 2 weeks (300/15 mpk before), semaglutide 10 nmol/kg s.c. Q3D
[37] = mean, after 25 days of administration, HTD1801 200 mpk, empagliflozin 10 mpk in last 2 weeks (300/15 mpk before)

## OC[C@H]1O[C@@H](c2ccc(Cl)c(Cc3ccc(O[C@H]4CCOC4)cc3)c2)[C@H](O)[C@@H](O)[C@@H]1O [Empagliflozin, empagliflozin]
[1]; after 14 days, reduced dose: HTD1801 200 mpk, empagliflozin 10 mpk
  body weight change (in words): slowly increased
[1]; [7]
  Body weight (mean): 42.9 g
  Body weight change rate: 0.0%
[1]; [8]
  Body weight (mean): 42.8 g
  Body weight change rate: −0.2%
[1]; [9]
  Body weight (mean): 42.9 g
  Body weight change rate: 0.1%
[1]; [10]
  Body weight (mean): 42.8 g
  Body weight change rate: −0.1%
[1]; [11]
  Body weight (mean): 42.9 g
  Body weight change rate: 0.0%
[1]; [12]
  Body weight (mean): 43.0 g
  Body weight change rate: 0.4%
[1]; [13]
  Body weight (mean): 42.9 g
  Body weight change rate: 0.1%
[1]; [14]
  Body weight (mean): 42.6 g
  Body weight change rate: −0.5%
[1]; [15]
  Body weight (mean): 42.7 g
  Body weight change rate: −0.4%
[1]; [16]
  Body weight (mean): 43.1 g
  Body weight change rate: 0.5%
[1]; [17]
  Body weight (mean): 43.2 g
  Body weight change rate: 0.8%
[1]; [18]
  Body weight (mean): 43.3 g
  Body weight change rate: 1.1%
[1]; [19]
  Body weight (mean): 43.7 g
  Body weight change rate: 1.9%
[1]; [20]
  Body weight (mean): 43.6 g
  Body weight change rate: 1.8%
[1]; [21]
  Body weight (mean): 43.7 g
  Body weight change rate: 2.0%
[1]; [22]
  Body weight (mean): 43.5 g
  Body weight change rate: 1.5%
[1]; [23]
  Body weight (mean): 43.8 g
  Body weight change rate: 2.3%
[1]; [24]
  Body weight (mean): 44.1 g
  Body weight change rate: 2.9%
[1]; [25]
  Body weight (mean): 44.5 g
  Body weight change rate: 3.9%
[1]; [26]
  Body weight (mean): 44.8 g
  Body weight change rate: 4.4%
[1]; [27]
  Body weight (mean): 45.1 g
  Body weight change rate: 5.2%
[1]; [28]
  Body weight (mean): 45.5 g
  Body weight change rate: 6.2%
[1]; [29]
  Body weight (mean): 46.0 g
  Body weight change rate: 7.3%
[1]; [30]
  Body weight (mean): 46.4 g
  Body weight change rate: 8.3%
[1]; [31]
  Body weight (mean): 46.5 g
  Body weight change rate: 8.5%
[1]; [32]
  Body weight (mean): 46.5 g
  Body weight change rate: 8.4%
[1]; [33]
  Body weight (mean): 46.3 g
  Body weight change rate: 8.1%
[1]; [34]
  Body weight (mean): 46.7 g
  Body weight change rate: 8.9%
[1]; [35]
  Body weight (mean): 46.5 g
  Body weight change rate: 8.4%
[1]; within 14 days, HTD1801 300 mpk, empagliflozin 15 mpk gavage QD
  body weight change / weight loss effect (in words): basically unchanged in week 1 and gradually increased; also recorded: could not achieve the weight loss effect
[2]; after 25 days, relative to control group G2
  body fat mass and body fat ratio (in words): increased
[2]; mean, after 25 days of administration (Table 5), HTD1801 200 mpk, empagliflozin 10 mpk in last 2 weeks (300/15 mpk before), semaglutide 10 nmol/kg s.c. Q3D
  Body weight: 47.53 g
[2]; [36]
  Body fat ratio: 49.13%
  Fat (body fat mass): 23.36 g
[3]; after 25 days, relative to model control group G2
  lean mass (in words): decreased
[3]; mean, after 25 days of administration (Table 7), HTD1801 200 mpk, empagliflozin 10 mpk in last 2 weeks (300/15 mpk before)
  Body weight: 47.53 g
[3]; [37]
  Lean (lean mass): 5.17 g
  Lean ratio: 10.92%
[4]; [13]
  Mean fasting blood glucose level: 7.8 mmol/L
[4]; day 20, HTD1801 200 mpk, empagliflozin 10 mpk (reduced after week 2)
  Mean fasting blood glucose level: 7.9 mmol/L
[5]; day 28, 0 min
  OGTT blood glucose level: 10.97 mmol/L
[5]; day 28, 15 min
  OGTT blood glucose level: 19.60 mmol/L
[5]; day 28, 30 min
  OGTT blood glucose level: 18.90 mmol/L
[5]; day 28, 60 min
  OGTT blood glucose level: 18.18 mmol/L
[5]; day 28, 90 min
  OGTT blood glucose level: 14.54 mmol/L
[5]; day 28, 120 min (head printed "12 0min")
  OGTT blood glucose level: 15.48 mmol/L
[5]; day 28, relative to model control group G2
  total blood glucose level in OGTT (in words): comparable
[6]
  food intake within 24 h (in words): comparable to that of the model control group
